Experimental data: ChEMBL document CHEMBL4270488, “Antibacterial Compounds from Marine Bacteria, 2010-2015” (J Nat Prod, 2017)
Converted amounts (≈) assume the structure as drawn. *1 amine or outer side, *2 acyl side, *3 side chain or, on linkers, in order; H or OH if unused. Where a SMILES comes first, the peptide text is derived from it. Bridges are numbered along the chain shown (N, C = ends). Roman numbers before positions name the chains, in order. [ ]: non-standard residue; d: D form. Actinocin(1to9) = Cc1c2oc3c(C)ccc(C(=O)[*:2])c3nc-2c(C(=O)[*:1])c(N)c1=O; NMeV = CN[C@H](C(=O)O)C(C)C; Sar = CNCC(=O)O

Key:
Bacillus subtilis [1] = experiment: Antibacterial activity against Bacillus subtilis DSM 347 incubated for 5 hrs by resazurin dye reduction based assay; format: functional, organism-based; settings: DSM 347, 5 h
[2] = system: Staphylococcus epidermidis; experiment: Antibacterial activity against Staphylococcus epidermidis DSM 20044 incubated for 5 hrs by resazurin dye reduction based assay; format: functional, organism-based; settings: DSM 20044, 5 h
[3] = system: Yersinia pseudotuberculosis; experiment: Inhibition of type 3 secretion system protein secretion in Yersinia pseudotuberculosis at 30 ug/ml incubated for 2 hrs by SDS-PAGE and densitometric analysis
Bacillus subtilis [4] = experiment: Antibacterial activity against Bacillus subtilis ATCC […] incubated for 16 hrs; format: functional
[5] = system: Mycobacterium tuberculosis; experiment: Antibacterial activity against Mycobacterium tuberculosis H37Rv ATCC 27294 incubated […]; format: functional
Bacillus subtilis [6] = experiment: Antibacterial activity against Bacillus subtilis CMCC63501; format: functional
Pseudomonas aeruginosa [7] = experiment: Antibacterial activity against Pseudomonas aeruginosa by broth dilution assay; format: functional
[8] = Antibacterial activity Bacillus pumilus against by broth dilution assay; format: functional
Pseudomonas aeruginosa [9] = experiment: Antibacterial activity against Pseudomonas aeruginosa incubated for 24 hrs by standard broth dilution assay; format: functional
Staphylococcus aureus [10] = experiment: Antibacterial activity against Staphylococcus aureus incubated for 24 hrs by standard broth dilution assay; format: functional
Escherichia coli = experiment: Antibacterial activity against Escherichia coli incubated for 24 hrs by standard broth dilution assay; format: functional
Bacillus subtilis [11] = experiment: Antibacterial activity against Bacillus subtilis incubated for 24 hrs by standard broth dilution assay; format: functional
Staphylococcus aureus [12] = experiment: Antibacterial activity against methicillin-resistant Staphylococcus aureus ATCC 43300 measured after overnight incubation by microdilution method; format: functional
[13] = system: Staphylococcus haemolyticus; experiment: Antibacterial activity against Staphylococcus haemolyticus UST950701-004 measured after overnight incubation by microdilution method; format: functional
Staphylococcus aureus [14] = experiment: Antibacterial activity against Staphylococcus aureus UST950701-005 measured after overnight incubation by microdilution method; format: functional
Bacillus subtilis [15] = experiment: Antibacterial activity against Bacillus subtilis 769 measured after overnight incubation by microdilution method; format: functional
[16] = Inhibition of Escherichia coli RNA polymerase
[17] = Inhibition of Staphylococcus aureus RNA polymerase
[18] = system: Mycobacterium tuberculosis; experiment: Antibacterial activity against Mycobacterium tuberculosis H37Rv ATCC 27294 incubated for 10 days by GFP based fluorescence assay; format: functional; settings: H37Rv ATCC 27294, 240 h

## CCC(C)CCC[C@H](C(=O)OC)[C@@H](O)c1cccc2nc3c(C(=O)O)cccc3nc12 (some centres not stated)
Bacillus subtilis [1]
  IC50: 9.1 µg/mL (≈ 21.4 µM)
[2]
  IC50: 6.1 µg/mL (≈ 14.4 µM)

## C/C=C(\C)[C@H](O)[C@H](C)/C=C(C)/C=C/C/C(C)=C/Cc1nc(OC)c(OC)c(O)c1C
[3]
  inhibition: 65%

## COC(=O)N[C@H]1[C@@H](C)O[C@@H](O[C@H]2C/C=C(\C)[C@@H]3C=C[C@@H]4[C@@H](O[C@H]5C[C@@H](O[C@H]6C[C@@H](O)[C@@H](O[C@@H]7C[C@@H](O)[C@@H](OC)[C@H](C)O7)[C@H](C)O6)[C@@H](O)[C@H](C)O5)[C@@H](C)C[C@H](C)[C@H]4[C@]3(C)C(=O)C3=C(O)[C@@]4(C[C@@H](C)C(CO)=C[C@H]4/C=C/2C)OC3=O)C[C@]1(C)[N+](=O)[O-]
Bacillus subtilis [4]
  MIC: 1.5 to 12 µg/mL (≈ 1.26 to 10.1 µM)
[5]
  MIC: 16 to 32 µg/mL (≈ 13.5 to 27 µM)
Bacillus subtilis [6]
  MIC: 1.6 to 3.1 µg/mL (≈ 1.35 to 2.61 µM)

## CN(C)[C@@H]1C(O)=C(C(N)=O)C(=O)[C@@]2(O)C(O)=C3C(=O)c4c(O)cccc4[C@@](C)(O)[C@H]3C[C@@H]12 [TETRACYCLINE]
Pseudomonas aeruginosa [7]
  MIC: 40 to 80 µg/mL (≈ 90 to 180 µM)
[8]
  MIC: 40 to 80 µg/mL (≈ 90 to 180 µM)

## COC(=O)N[C@H]1[C@@H](C)O[C@@H](O[C@H]2C/C=C(\C)[C@@H]3C=C[C@@H]4[C@@H](O[C@H]5C[C@@H](O[C@H]6C[C@@H](O)[C@@H](O[C@@H]7C[C@@H](O)[C@@H](OC)[C@H](C)O7)[C@H](C)O6)[C@@H](O)[C@H](C)O5)[C@@H](C)C[C@H](C)[C@H]4[C@]3(C)C(=O)C3=C(O)[C@@]4(C[C@@H](C)C(CO)=C[C@H]4/C=C/2C)OC3=O)C[C@]1(C)N
Bacillus subtilis [4]
  MIC: 1.5 to 12 µg/mL (≈ 1.3 to 10.4 µM)
[5]
  MIC: 16 to 32 µg/mL (≈ 13.8 to 27.6 µM)

## C[C@@H]1CCC/C=C/[C@@H]2O[C@@H](C/C=C\C=C\[C@H](O[C@@H]3O[C@H](CO)[C@@H](O)[C@H](O)[C@H]3O)C/C=C/C=C\C(=O)O1)C[C@@H](O)[C@H]2O
Pseudomonas aeruginosa [9]
  MIC: 0.02 to 0.13 µg/mL (≈ 0.0344 to 0.224 µM)
Staphylococcus aureus [10]
  MIC: 0.02 to 0.13 µg/mL (≈ 0.0344 to 0.224 µM)
Escherichia coli
  MIC: 0.02 to 0.13 µg/mL (≈ 0.0344 to 0.224 µM)
Bacillus subtilis [11]
  MIC: 0.02 to 0.13 µg/mL (≈ 0.0344 to 0.224 µM)

## COc1ccc2oc3c4c(c(O)c(O)c3c(=O)c2c1O)CCc1cc2c(c(O)c1-4)C(=O)N1[C@@](C)(CO)C(=O)O[C@@]1(C)C2
Staphylococcus aureus [12]
  MIC: ≤ 1 µg/mL
[13]
  MIC: ≤ 1 µg/mL
Staphylococcus aureus [14]
  MIC: ≤ 1 µg/mL
Bacillus subtilis [15]
  MIC: ≤ 1 µg/mL

## COc1ccc2oc3c4c(c(O)c(O)c3c(=O)c2c1O)CCc1cc2c(c(O)c1-4)C(=O)N1[C@@](C)(C2)OC(=O)[C@]1(C)CO
Staphylococcus aureus [12]
  MIC: ≤ 1 µg/mL
[13]
  MIC: ≤ 1 µg/mL
Staphylococcus aureus [14]
  MIC: ≤ 1 µg/mL
Bacillus subtilis [15]
  MIC: ≤ 1 µg/mL

## CC[C@H](C)[C@H]1NC(=O)[C@@H](NC(=O)[C@H](C)[C@H](O)C(C)C)[C@@H](C)OC(=O)[C@H]2NC(=O)[C@@H](C(C)C)NC(=O)[C@@H](Cc3ccccc3)N(C)C(=O)[C@@H](NC1=O)c1ccc(cc1)O[C@H](C)[C@@](O)(CCl)/C=C\C(=O)NCC(=O)O2
[16]
  IC50: 200 to 2000 nM
[17]
  IC50: 200 to 4000 nM

## C[C@@H]1CCC/C=C/[C@@H]2O[C@H](C[C@@H](O)C/C=C\C=C\[C@H](O[C@@H]3O[C@H](CO)[C@@H](O)[C@H](O)[C@H]3O)C/C=C/C=C\C(=O)O1)[C@H]2O
Pseudomonas aeruginosa [9]
  MIC: 0.02 to 0.13 µg/mL (≈ 0.0344 to 0.224 µM)
Staphylococcus aureus [10]
  MIC: 0.02 to 0.13 µg/mL (≈ 0.0344 to 0.224 µM)
Escherichia coli
  MIC: 0.02 to 0.13 µg/mL (≈ 0.0344 to 0.224 µM)
Bacillus subtilis [11]
  MIC: 0.02 to 0.13 µg/mL (≈ 0.0344 to 0.224 µM)

## C/C=C(\C)[C@H](C)[C@H](C)/C=C(C)/C=C/C/C(C)=C/Cc1cc(O)cc(OC)n1
[3]
  inhibition: 45%

## CCn1cc(C(=O)O)c(=O)c2ccc(C)nc21 [NALIDIXIC ACID]
Pseudomonas aeruginosa [7]
  MIC: 1250 to 1500 µg/mL (≈ 5380 to 6460 µM)
[8]
  MIC: 1250 to 1500 µg/mL (≈ 5380 to 6460 µM)

## Cc1c2oc3c(C)ccc(C(=O)N[C@@H]4C(=O)N[C@H](C(C)C)C(=O)N5CCC[C@H]5C(=O)N(C)CC(=O)N(C)[C@@H](C(C)C)C(=O)O[C@@H]4C)c3nc-2c(C(=O)N[C@@H]2C(=O)N[C@H](C(C)C)C(=O)N3CCC[C@H]3C(=O)N(C)CC(=O)N(C)[C@@H](C(C)C)C(=O)O[C@@H]2C)c(N)c1=O [DACTINOMYCIN] (I: T[dV]P[Sar][NMeV] / II: T[dV]P[Sar][NMeV]; ester I:1-I:C, II:1-II:C; linker I:N-II:N via Actinocin(1to9))
[18]
  MIC: 1 to 8 µg/mL (≈ 0.797 to 6.37 µM)
